Patent publication EP0603240B1, “SAFENING HERBICIDAL PYRAZOLYLSULFONYLUREAS” (priority 1991, dated 1993)

How the values were obtained:
corn [1] = assay: Example 10, Procedure II: Herbicide No. 1 + propachlor (No. 5) with antidotes; type: in vivo
Experimental: (§1) Containers were filled and compacted with a fumigated silt loam top soil to a depth of about 1.3 cm from the top of the container. A first container was designated as an untreated control, a second container was designated as a herbicide control, and a third container was designated as a herbicide + antidote test container. Each of the containers was seeded with a crop species. A measured amount of herbicide dispersed or dissolved in acetone was applied to a measured quantity of soil. To this same quantity of soil treated with herbicide, there was added a measured amount of antidote dispersed or dissolved in acetone. The quantity of soil treated with the herbicide and antidote was thoroughly mixed to incorporate the herbicide and antidote in the soil uniformly. The seed bed in the third container of soil was covered with the soil treated with the herbicide and antidote and the container was leveled. For each test series, the seed beds of the first and second containers were likewise covered by soil layers. the cover layer of the first container was not treated with herbicide or antidote.
(§2) The containers were then placed on a bench in a greenhouse and sub-irrigated as required for the duration of the test. […] Plant response is measured in terms of percent injury. Antidote efficacy is indicated as the difference in plant injury by the herbicide(s) without the antidote and with the antidote.
(§3) This procedure is the same as Procedure I, but modified in the manner that after incorporation of the chemicals (herbicide and antidote) the containers with the covered seedbed were treated with an initial overhead irrigation equivalent to 0.6 cm rainfall, then subsequently sub-irrigated as required on greenhouse benches.
In this test, the safening effect of various antidotes on the herbicidal combination of Herbicide No. 1 and another α-chloroacetanilide co-herbicide, propachlor, (Herbicide No. 5) was investigated. Propachlor is the active ingredient in the commercial herbicide RAMROD®. Procedure II was also used in this test as in the preceding example.

[2] = system: velvetleaf (Abutilon theophrasti); assay: Example 20, Procedure II: Herbicide No. 1 + EPTC or ERADICANE EXTRA with Antidote Nos. 5 and 15; type: in vivo
Experimental: as §1, §2, §3
(§4) In the series of greenhouse tests described below, for routine screening purposes the herbicide/antidote compositions were tested in crop/weed combinations involving corn as the crop and either or both of the weeds barnyardgrass (Echinochloa crusgalli), a monocotyledonous weed, and velvetleaf (Abutilon theophrasti), a dicotyledonous weed. In the tables below, these weeds are indicated by the symbols "BYG" and "VL", respectively.
This example describes experiments designed to test two generally efficacious antidotal compounds, i.e., Antidote Nos. 5 and 15, against the herbicidal action of the sulfonylurea compound, Herbicide No. 1, and the commercial herbicides EPTC (Herbicide No. 4) and ERADICANE® EXTRA (EPTC + R-29148, Antidote No. 5). Procedure II above was used in conducting these experiments. Formulations of EPTC and ERADICANE EXTRA were applied onto soil cover layers (to be applied over seed beds), followed by sequential pipetting of Herbicide No. 1 and Antidote No. 15. The soil was mixed to homogeneity and spread over the seed beds followed by 0.6 cm of overhead irrigation.

corn [3] = assay: Example 1, greenhouse Procedure II: antidotes against Herbicide No. 1; type: in vivo; details: Herb. No. 1 0.14 kg/ha, no antidote
Experimental: as §1, §2, §3, §4
This example was designed to investigate the antidotal efficacy of a plurality of antidotes against Herbicide No. 1 in corn in the presence of barnyard grass and velvetleaf. The antidotes used in this example were Antidote Nos. 1-10, 12, 13 and 15.
The test in this example was conducted as described above for Procedure II. The antidotes were applied to the soil cover layer by pipet after spraying on the herbicide followed by incorporation and simulated rain.

[4] = system: barnyardgrass (Echinochloa crusgalli); assay: Example 3, Procedure I: antidotes against Herbicide No. 1; type: in vivo; details: no antidote
Experimental: as §1, §2, §4
This example details the results of tests with Antidote Nos. 12, 15 and 16 to safen Herbicide No. 1 over application rates ranging from 4.48 kg/ha down to 0.56 kg/ha, in corn in the presence of barnyardgrass. Procedure I described above was used in these tests.

corn [5] = assay: Example 16, Procedure II: Herbicide No. 1 + EPTC (No. 4, EPTAM) with antidotes; type: in vivo
Experimental: as §1, §2, §3
The test procedure used in these experiments was that of Procedure II described above. The antidotes were applied to a soil cover layer by pipet after spraying the herbicides onto the soil, followed by incorporation and overhead irrigation. […]

corn [6] = assay: Example 25, greenhouse post-emergence test: Antidote Nos. 1 and 2 against Herbicide Nos. 1-3; type: in vivo, Corn (Pioneer 3424 variety); details: for % Inhibition Corn: no herbicide; for inhibition at 0.25 g/ha / inhibition at 0.74 g/ha / inhibition at 2.5 g/ha / inhibition at 0.07 g/ha: Zea mays
Experimental: Additional tests were conducted in the greenhouse in order to evaluate the antidotal efficacy of Antidote Nos. 1 (dichlormid) and 2 (naphthalic anhydride) in protecting corn from the herbicidal activity of Herbicide Nos. 1-3 (i.e., NC-319, NC-319 EX and NC-311, respectively). The chemicals were tested in both preemergence and post-emergence modes of application. The herbicides were prepared and applied as wettable powders; dichlormid was applied as an emulsifiable concentrate, while the naphthalic anhydride was applied as a coating on the corn seed prior to planting.
Corn seeds (Pioneer 3424 variety) were planted in alluvial soil containing compost and fertilizer in pots 12 cm. in diameter. Test chemicals were applied with a spray gun at the spray volume rate of 11.2 l/ha at the time of seeding in the preemergence tests and seven (7) days after seeding in the post-emergence tests, when the check (control) plants were at the 16-20 cm., 3.0-3.2 leaf stage, and naphthalic anhydride coated seed grown plants were at the 14-16 cm., 2.8-3.0 leaf stage.
Test data from the preemergence tests are shown in Table 25A and from the post-emergence tests in Table 25B. In the tables, the concentration of chemicals is shown in terms of active ingredient in grams per hectare (G/ha); concentrations of the naphthalic anhydride were not measured per se, but were present as in conventional, normally-coated applications. Corn injury is shown in terms of percent inhibition of growth.

[7] = Herbicide No.1 0.56 kg/ha alone
[8] = Herbicide No.1 0.14 kg/ha + Herbicide No.5 4.48 kg/ha, antidote rate 2.24 kg/ha
[9] = Herbicide No.1 0.14 kg/ha + Herbicide No.5 4.48 kg/ha, antidote rate 8.96 kg/ha
[10] = Herbicide No.1 0.56 kg/ha + Herbicide No.5 4.48 kg/ha, antidote rate 2.24 kg/ha
[11] = Herbicide No.1 0.56 kg/ha + Herbicide No.5 4.48 kg/ha, antidote rate 8.96 kg/ha

CC1(C)OC(c2ccco2)CN1C(=O)C(Cl)Cl (stereo not shown) [Antidote No. 15, Oxazolidine, 3-(dichloroacetyl)-5-(2-furanyl)-2,2-dimethyl]
safening of corn, assessment in words (corn [1]; Herbicide Nos. 1 and 5, Table 10): best safening effect
% Injury VL ([2]; Herbicide No.1 0.56 kg/ha + No. 4 2.24 kg/ha, Antidote No. 15 0.18 kg/ha): 90%
% Injury VL ([2]; Herbicide No.1 0.56 kg/ha + No. 4 4.48 kg/ha, Antidote No. 15 0.35 kg/ha): 95%
% Injury VL ([2]; Herbicide No.1 0.56 kg/ha + No. 4 6.78 kg/ha, Antidote No. 15 0.56 kg/ha): 95%
% Injury VL ([2]; Herbicide No.1 2.24 kg/ha + No. 4 2.24 kg/ha, Antidote No. 15 0.18 kg/ha): 95%
% Injury VL ([2]; Herbicide No.1 2.24 kg/ha + No. 4 4.48 kg/ha, Antidote No. 15 0.35 kg/ha): 95%
% Injury VL ([2]; Herbicide No.1 2.24 kg/ha + No. 4 6.78 kg/ha, Antidote No. 15 0.56 kg/ha): 100%

COC(=O)c1c(Cl)nn(C)c1S(=O)(=O)NC(=O)Nc1nc(OC)cc(OC)n1 [Herbicide No. 1]
% Injury Corn (corn [3]): 5%
% Injury BYG ([4]; Herb. No. 1 0.56 kg/ha): 50%
% Injury BYG ([4]; Herb. No. 1 1.12 kg/ha): 70%
% Injury BYG ([4]; Herb. No. 1 2.24 kg/ha): 70%
% Injury BYG ([4]; Herb. No. 1 4.48 kg/ha): 75%
% Injury Corn (corn [1]; Herbicide No.1 0.14 kg/ha alone, no antidote): 20%
% Injury Corn (corn [1]; Herbicide No.1 0.56 kg/ha alone, no antidote): 30%

COC(=O)c1c(Cl)nn(C)c1S(=O)(=O)NC(=O)Nc1nc(OC)cc(OC)n1 [No.1]
% Injury Corn (corn [5]; [7]): 10%
% Injury Corn (corn [5]; Herbicide No.1 1.12 kg/ha alone): 15%
% Injury VL ([2]; Herbicide No.1 0.56 kg/ha + ERADICANE EXTRA 2.24 kg/ha): 95%
% Injury VL ([2]; Herbicide No.1 0.56 kg/ha + ERADICANE EXTRA 4.48 kg/ha): 90%
% Injury VL ([2]; Herbicide No.1 0.56 kg/ha + ERADICANE EXTRA 6.72 kg/ha): 100%
% Injury VL ([2]; Herbicide No.1 0.56 kg/ha + No. 4 2.24 kg/ha, no antidote): 95%
% Injury VL ([2]; Herbicide No.1 0.56 kg/ha + No. 4 4.48 kg/ha, no antidote): 90%
% Injury VL ([2]; Herbicide No.1 0.56 kg/ha + No. 4 6.72 kg/ha, no antidote): 100%
% Injury VL [2, 7]: 95%
% Injury VL ([2]; Herbicide No.1 2.24 kg/ha + ERADICANE EXTRA 2.24 kg/ha): 100%
% Injury VL ([2]; Herbicide No.1 2.24 kg/ha + ERADICANE EXTRA 4.48 kg/ha): 100%
% Injury VL ([2]; Herbicide No.1 2.24 kg/ha + ERADICANE EXTRA 6.72 kg/ha): 95%
% Injury VL ([2]; Herbicide No.1 2.24 kg/ha + No. 4 2.24 kg/ha, no antidote): 95%
% Injury VL ([2]; Herbicide No.1 2.24 kg/ha + No. 4 4.48 kg/ha, no antidote): 95%
% Injury VL ([2]; Herbicide No.1 2.24 kg/ha + No. 4 6.72 kg/ha, no antidote): 100%
% Injury VL ([2]; Herbicide No.1 2.24 kg/ha alone): 100%

C=CCN(CC=C)C(=O)C(Cl)Cl [compound 1]
% Injury Corn (corn [1]; [8]): 10%
% Injury Corn (corn [1]; [9]): 0%
% Injury Corn (corn [1]; [10]): 15%
% Injury Corn (corn [1]; [11]): 0%
% Inhibition Corn (corn [6]; Antidote alone (rate printed as -)): 1.4%
inhibition at 0.25 g/ha (corn [6]; Antidote at 7.41 G/ha with Herbicide No. 1 at 0.25 G/ha): 16.1%
inhibition at 0.74 g/ha (corn [6]; Antidote at 7.41 G/ha with Herbicide No. 1 at 0.74 G/ha): 16.3%
inhibition at 2.5 g/ha (corn [6]; Antidote at 7.41 G/ha with Herbicide No. 1 at 2.5 G/ha): 22.4%
inhibition at 0.25 g/ha (corn [6]; Antidote at 7.41 G/ha with Herbicide No. 2 at 0.25 G/ha): 17.6%
inhibition at 0.74 g/ha (corn [6]; Antidote at 7.41 G/ha with Herbicide No. 2 at 0.74 G/ha): 15.9%
inhibition at 2.5 g/ha (corn [6]; Antidote at 7.41 G/ha with Herbicide No. 2 at 2.5 G/ha): 23.7%
inhibition at 0.07 g/ha (corn [6]; Antidote at 7.41 G/ha with Herbicide No. 3 at 0.07 G/ha): 39.8%
inhibition at 0.25 g/ha (corn [6]; Antidote at 7.41 G/ha with Herbicide No. 3 at 0.25 G/ha): 73.9%
inhibition at 0.74 g/ha (corn [6]; Antidote at 7.41 G/ha with Herbicide No. 3 at 0.74 G/ha): 73.1%

O=C1OC(=O)c2cccc3cccc1c23 [compound 2]
% Inhibition Corn (corn [6]; Antidote alone as seed treatment (concentration not measured)): 14.5%
inhibition at 0.25 g/ha (corn [6]; Antidote as seed treatment (concentration not measured) with Herbicide No. 1 at 0.25 G/ha): 14.1%
inhibition at 0.74 g/ha (corn [6]; Antidote as seed treatment (concentration not measured) with Herbicide No. 1 at 0.74 G/ha): 27.3%
inhibition at 2.5 g/ha (corn [6]; Antidote as seed treatment (concentration not measured) with Herbicide No. 1 at 2.5 G/ha): 16.7%
inhibition at 0.25 g/ha (corn [6]; Antidote as seed treatment (concentration not measured) with Herbicide No. 2 at 0.25 G/ha): 8%
inhibition at 0.74 g/ha (corn [6]; Antidote as seed treatment (concentration not measured) with Herbicide No. 2 at 0.74 G/ha): 24.9%
inhibition at 2.5 g/ha (corn [6]; Antidote as seed treatment (concentration not measured) with Herbicide No. 2 at 2.5 G/ha): 19%
inhibition at 0.07 g/ha (corn [6]; Antidote as seed treatment (concentration not measured) with Herbicide No. 3 at 0.07 G/ha): 20.4%
inhibition at 0.25 g/ha (corn [6]; Antidote as seed treatment (concentration not measured) with Herbicide No. 3 at 0.25 G/ha): 33.7%
inhibition at 0.74 g/ha (corn [6]; Antidote as seed treatment (concentration not measured) with Herbicide No. 3 at 0.74 G/ha): 58.8%

CC1(C(Cl)Cl)OCCO1 [compound 13]
% Injury Corn (corn [1]; [8]): 0%
% Injury Corn (corn [1]; [9]): 15%
% Injury Corn (corn [1]; [10]): 45%
% Injury Corn (corn [1]; [11]): 10%
